Measurements reported in patent US11261232B2, “TNFRSF14 / HVEM proteins and methods of use thereof” (MEMORIAL SLOAN KETTERING CANCER CENTER, priority 2015, dated 2022).

Assays:
[1] = tested on: mouse lymphoma lines (BCL1 and Myc/Bc12); assay: qRT-PCR of TNF family cytokines in mouse lymphoma lines; format: cell-based; conditions: solHVEM 10 μg/ml; BCL1 and Myc/Bcl2 lines; 24 hrs
Excerpt: FIG. 5A-I. Abnormal activation of the lymphoid stroma in B-cell lymphomas. FIG. 5A, Immunohistofluorescence staining for the FDC marker CD21/35 and the FRC marker Collagen 1 on control lymphomas (vector) and HVEM knockdown lymphomas (shHVEM) (n=3 for each, scale bars=100 μm); FIG. 5B and FIG. 5C, Systematic quantification of CD21/35 (left) and collagen I (right) staining in control (Vector) and HVEM deficient (shHVEM) lymphomas based on 12 areas in the T-cell zone and 30 areas in the B-cell zone per mice (cumulative number for 3 mice), respectively; ** p<0.01; *** p<0.001 by parametric t-test; FIG. 5D and FIG. 5E, CXCL13 (FIG. 5D) and CCL19 (FIG. 5E) expression by qRT-PCR on control (vector) and HVEM knockdown (shHVEM) lymphomas (mean of four replicates, error bars indicate standard deviation, * p<0.01); FIG. 5F, qRT-PCR measurement of the LTa, LTb, and TNFa mRNA expression in B cells isolated from the spleens of vector and shHVEM mice (n=3); FIG. 5G-I, qRT-PCR measurement of TNFa (FIG. 5G), LTa (FIG. 5H), and LTb (FIG. 5I) in B cell line BCL1 after 24 hrs of treatment with solHVEM (10 μg/ml).
FIG. 12A-F. Analysis of the lymphoid stroma in B cell lymphomas. FIG. 12A, Immunohistofluorescence staining of CD20pos B cells, Transglutaminasepos FRCs, and CD21Lpos FDCs in reactive lymph nodes and two separate human follicular lymphoma tissue specimens; FIG. 12B, Flowchart of the image processing for FRC density (Collagen I); briefly, images were thresholded and transformed to binaries images, then a watershed algorithm was applied and number of polygons evaluated and analyzed by ImageJ software; FIG. 12C, Number of polygons indicates FRC density in control lymphomas (vector) and HVEM knockdown lymphomas showing no difference in FRC contribution. 40 areas were selected in the T cell zone and analyzed per mice (n=3 per each group); FIG. 12D-F, qRT-PCR measurement of TNFa (FIG. 12D), LTa (FIG. 12E), and LTb (FIG. 12F) in mouse B-cell line EuMyc-Bc12. […]

[2] = tested on: myc-Bc12 lymphoma cell line; assay: Cell viability by CellTiterGlo; format: cell-based, mouse; conditions: 5 ug/ml; 24 hours
Procedure: FIG. 18. sTNFRSF14 decreases cell viability in vitro. Cells of the myc-Bc12 lymphoma cell line were plated at a density of 1×10^5 cells/ml and they were treated with sTNFRSF14 (5 ug/ml) or vehicle. After 24 hours of treatment cell viability was assessed using CellTiterGlo reagent.

Molecule	expression of LTa [1]	expression of LTb [1]	expression of TNFa [1]	cell viability [2]
solHVEM: Leu39-Val202 soluble HVEM ectodomain polypeptide of SEQ ID NO. 8	readily decreased	readily decreased	did not reduce	–
sTNFRSF14: Pro37-Val202 soluble HVEM ectodomain polypeptide of SEQ ID NO. 6 (protein, listed as Homo sapiens) PALPSCKEDEYPVGSECCPKCSPGYRVKEACGELTGTVCEPCPPGTYIAHLNGLSKCLQCQMCDPAMGLRASRNCSRTENAVCGCSPGHFCIVQDGDHCAACRAYATSSPGQRVQKGGTESQDTLCQNCPPGTFSPNGTLEECQHQTKCSWLVTKAGAGTSSSHWV	–	–	–	modest decrease
